Laboratory results taken from patent EP4603105A1, “PHARMACEUTICAL COMPOSITION CONTAINING CYCLIC COMPOUND HAVING SELECTIVE KRAS INHIBITORY EFFECT AGAINST HRAS AND NRAS” (CHUGAI SEIYAKU KABUSHIKI KAISHA, priority 2022, dated 2024).
Read-outs that look alike come from different tables or passages of the source. Where a SMILES comes first, the peptide text is derived from it. Bridges are numbered along the chain shown (N, C = ends). [ ]: non-standard residue; d: D form. The star is where a group is joined. hPhe(3,5-F2-4-CF3) = N[C@@H](CCc1cc(F)c(C(F)(F)F)c(F)c1)C(=O)O; hPhe(3-Cl-4-CF3) = N[C@@H](CCc1ccc(C(F)(F)F)c(Cl)c1)C(=O)O; NPrPhe(4-CF3) = CCCN[C@@H](Cc1ccc(C(F)(F)F)cc1)C(=O)O; NEtPhe(4-Me) = CCN[C@@H](Cc1ccc(C)cc1)C(=O)O; Pip(4,4-F2) = O=C(O)[C@@H]1CC(F)(F)CCN1; NMeGly(cPent) = CN[C@H](C(=O)O)C1CCCC1; Ac4c(3,3-F2) = NC1(C(=O)O)CC(F)(F)C1; Hyp = O=C(O)[C@@H]1C[C@@H](O)CN1; NMeD = CN[C@@H](CC(=O)O)C(=O)O; NMeL = CN[C@@H](CC(C)C)C(=O)O; Pip = O=C(O)[C@@H]1CCCCN1; Morpholide = C1CN(*)CCO1; NMeA = CN[C@@H](C)C(=O)O; Ac5c = NC1(C(=O)O)CCCC1; Aze = O=C(O)[C@@H]1CCN1; NEtG = CCNCC(=O)O; Sar = CNCC(=O)O

Columns and labels:
[1] = target: GDP-bound NRAS wild-type protein (Homo sapiens, UniProt P01111); experiment: Binding to NRAS by surface plasmon resonance (SPR), KD and KD ratio to KRAS
GDP-bound NRAS wild-type protein, sequence (P01111 whole entry): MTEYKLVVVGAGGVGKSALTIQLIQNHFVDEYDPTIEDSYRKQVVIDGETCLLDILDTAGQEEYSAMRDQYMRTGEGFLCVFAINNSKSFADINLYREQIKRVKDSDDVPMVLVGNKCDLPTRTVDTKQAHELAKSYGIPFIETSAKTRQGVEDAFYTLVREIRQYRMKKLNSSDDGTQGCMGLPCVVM
How it was run: (§1)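 GDP-bound biotin-Avi RAS captured at ~100–300 RU, 30°C, pH 7.4 HBS containing 10 µM GDP, 10 mM MgCl2, 1 mM DTT, 0.01% Tween 20 and 4% DMSO. KD by 1:1 fitting.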

[2] = system: human lung cancer strain NCI-H441; assay type: cell-based
How it was run: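 Readout: […] after the ATP-based reagent. Compound: serial dilutions in dimethyl sulfoxide.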

[3] = target: HRAS wild-type protein (Homo sapiens, UniProt P01112); experiment: Binding to HRAS by surface plasmon resonance (SPR), KD and KD ratio to KRAS
HRAS wild-type protein, sequence (P01112 whole entry): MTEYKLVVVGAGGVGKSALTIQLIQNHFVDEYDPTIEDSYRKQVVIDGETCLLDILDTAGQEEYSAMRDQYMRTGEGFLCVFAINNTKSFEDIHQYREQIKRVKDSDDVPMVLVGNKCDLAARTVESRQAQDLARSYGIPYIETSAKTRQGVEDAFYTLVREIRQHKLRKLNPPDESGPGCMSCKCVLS
How it was run: as §1

[4] = ratio of KD for GDP-bound NRAS wild-type protein to KD for KRAS
[5] = ratio of KD for HRAS wild-type protein to KD for KRAS
[6] = ratio of the KD value with respect to GDP-bound NRAS wild-type protein to the KD value with respect to KRAS
[7] = ratio of the KD value with respect to HRAS wild-type protein to the KD value with respect to KRAS
[8] = ratio of KD value for GDP-bound NRAS wild-type protein to KD value for KRAS (SPR)
[9] = ratio of KD value for HRAS wild-type protein to KD value for KRAS (SPR)

SMILES	IC50 [2] [nM]	NRAS /KRAS [1, 4]	IC50 ([2]; NCI-H441 cells, 4 days, CellTiter-Glo, read-out: NCl-H441 IC50) [nM]	HRAS /KRAS [3, 5]	NRAS /KRAS [1, 6]	HRAS /KRAS [3, 7]	NRAS /KRAS [1, 8]	HRAS /KRAS [3, 9]
CCOC[C@H]1C(=O)N[C@@H]([C@@H](C)CC)C(=O)N(C)CC(=O)N(C)[C@H]2C/C=C\CCN(C2=O)[C@@H](Cc2ccc3c(c2)CCC3(F)F)C(=O)N(C)CC(=O)N[C@@H](CCc2ccc(C(F)(F)F)c(OC)c2)C(=O)N2C[C@@H](C)C[C@H]2C(=O)NC2(CC(C)(C)C2)C(=O)N(C)[C@@H](C2CCCC2)C(=O)N(C)[C@H](C(=O)N(C)CC)CC(=O)N1C [PP2704]		B (a compound having 3 or more and less than 10 is denoted as B)	10.7	B (a compound having 3 or more and less than 10 is denoted as B)				
CCO[C@@H]1C[C@H]2C(=O)NC3(CCC3)C(=O)N(C)[C@@H](C3CCCC3)C(=O)N(C)[C@H](C(=O)N(C)C)CC(=O)N(C)[C@@H](COC)C(=O)N[C@@H]([C@@H](C)CC)C(=O)N(C)CC(=O)N(C)[C@H]3C/C=C\CCN(C3=O)[C@@H](Cc3ccc(C(F)(F)F)cc3)C(=O)N(C)CC(=O)N[C@@H](CCc3cc(F)c(C(F)(F)F)c(F)c3)C(=O)N2C1 [PP1113]	21.4	A (a compound having 10 or more and less than 20 is denoted as A)		A (a compound having 10 or more and less than 20 is denoted as A)				
CCO[C@@H]1C[C@H]2C(=O)NC3(CC(F)(F)C3)C(=O)N(C)[C@@H](C3CCCC3)C(=O)N(C)[C@H](CC)CC(=O)N(C)[C@@H](CC3CC3)C(=O)N[C@@H]([C@@H](C)CC)C(=O)N(C)CC(=O)N(C)[C@H]3C/C=C\CCN(C3=O)[C@@H](Cc3ccc(C(F)(F)F)cc3)C(=O)N(C)CC(=O)N[C@@H](CCc3cc(F)c(C(F)(F)F)c(F)c3)C(=O)N2C1 [PP1633]	15.1						A (a compound having 10 or more and less than 20 is denoted as A)	B (a compound having 3 or more and less than 10 is denoted as B)
CC[C@H](C)[C@@H]1NC(=O)[C@@H]2CCCCCc3ccc(cc3)C[C@@H](C(=O)N(C)CC(=O)N[C@@H](CCc3ccc(C(F)(F)F)c(OC)c3)C(=O)N3C[C@H](OC(C)C)C[C@H]3C(=O)NC3(CC(C)(C)C3)C(=O)N(C)[C@@H](C3CCCC3)C(=O)N(C)[C@H](C(=O)N(C)C)CC(=O)N2C)N2CC/C=C\C[C@@H](C2=O)N(C)C(=O)CN(C)C1=O [PP3072]	2.6	A (a compound having 10 or more and less than 20 is denoted as A)		B (a compound having 3 or more and less than 10 is denoted as B)				
CCCN(C)C(=O)[C@@H]1CC(=O)N(C)[C@@H](CC(F)F)C(=O)N[C@@H]([C@@H](C)CC)C(=O)N(C)CC(=O)N(C)[C@H]2C/C=C\CCN(C2=O)[C@@H](Cc2ccc(C(F)(F)F)cc2)C(=O)N(C)CC(=O)N[C@@H](CCc2cc(F)c(C(F)(F)F)c(F)c2)C(=O)N2C[C@H](OCC)C[C@H]2C(=O)NC2(CC(F)(F)C2)C(=O)N(C)[C@@H](C2CCCC2)C(=O)N1C [PP1733]	3.8						A (a compound having 10 or more and less than 20 is denoted as A)	A (a compound having 10 or more and less than 20 is denoted as A)
CCC[C@H]1C(=O)N[C@@H]([C@@H](C)CC)C(=O)N(C2CC2)CC(=O)N(C)[C@H]2C/C=C\CCN(C2=O)[C@@H](CC2CCC(F)(F)CC2)C(=O)N(C)CC(=O)N[C@@H](CCc2ccc(C(F)(F)F)c(OC)c2)C(=O)N2C[C@H](OCC)C[C@H]2C(=O)N(C)C2(CCC2)C(=O)N(C)[C@@H](C(CC)CC)C(=O)N(C)[C@H](C(=O)N(C)C)CC(=O)N1C [PP2349]	73.2				A (a compound having 10 or more and less than 20 is denoted as A)	A (a compound having 10 or more and less than 20 is denoted as A)		
CCO[C@@H]1C[C@H]2C(=O)NC3(CCC3)C(=O)N(C)[C@@H](C3CCCC3)C(=O)N3CCC[C@@H]3CC(=O)N(C)[C@@H](CC3CC3)C(=O)N[C@@H]([C@@H](C)CC)C(=O)N(C)CC(=O)N(C)[C@H]3C/C=C\CCN(C3=O)[C@@H](Cc3ccc(C(F)(F)F)cc3)C(=O)N(C)CC(=O)N[C@@H](CCc3ccc(C(F)(F)F)c(OC)c3)C(=O)N2C1 [PP1616]	33.5						B (a compound having 3 or more and less than 10 is denoted as B)	B (a compound having 3 or more and less than 10 is denoted as B)

Further compounds by falling IC50 [2], results first:

IC50 [2] [nM]	SMILES	NRAS /KRAS [1, 4]	IC50 ([2]; NCI-H441 cells, 4 days, CellTiter-Glo, read-out: NCl-H441 IC50) [nM]	HRAS /KRAS [3, 5]	NRAS /KRAS [1, 6]	HRAS /KRAS [3, 7]	NRAS /KRAS [1, 8]	HRAS /KRAS [3, 9]
59.3	CCO[C@@H]1C[C@H]2C(=O)N(C)C3(CCC3)C(=O)N(C)[C@@H](C(CC)CC)C(=O)N(C)[C@H](C(=O)N(C)C)CC(=O)N(C)[C@@H](COC)C(=O)N[C@@H]([C@@H](C)CC)C(=O)N(C3CC3)CC(=O)N(C)[C@H]3C/C=C\CCN(C3=O)[C@@H](CC3CCCCC3)C(=O)N(C)CC(=O)N[C@@H](CCc3ccc(C(F)(F)F)c(OC)c3)C(=O)N2C1 [PP2339]				A (a compound having 10 or more and less than 20 is denoted as A)	A (a compound having 10 or more and less than 20 is denoted as A)		
41.1	CCCN1C(=O)CN(C)C(=O)CN(CC)C(=O)[C@H]([C@@H](C)CC)NC(=O)[C@H](CC(C)C)N(C)C(=O)C[C@@H](C(=O)N2CCOCC2)N(C)C(=O)[C@H](C2CCCC2)N(C)C(=O)C2(CCCC2)NC(=O)[C@@H]2CC(F)(F)CCN2C(=O)[C@H](CCc2ccc(C(F)(F)F)c(Cl)c2)NC(=O)CN(C)C(=O)[C@@H]1Cc1ccc(C(F)(F)F)cc1 [PP0298] ([NMeL]I[NEtG][Sar][NPrPhe(4-CF3)][Sar][hPhe(3-Cl-4-CF3)][Pip(4,4-F2)][Ac5c][NMeGly(cPent)][NMeD]-Morpholide; lactam N-11)	B (a compound having 3 or more and less than 10 is denoted as B)		C (A compound having a KD ratio of 0.1 or more and less than 3 is denoted as C)				
39.1	CCO[C@@H]1C[C@H]2C(=O)NC3(CC(C)(C)C3)C(=O)N(C)[C@@H](C(CC)CC)C(=O)N(C)[C@H](C(=O)N3CCCC3)CC(=O)N(C)[C@@H](COC)C(=O)N[C@@H]([C@@H](C)CC)C(=O)N(C)CC(=O)N(C)[C@H]3C/C=C\CCN(C3=O)[C@@H](Cc3ccc(C)cc3)C(=O)N(C)CC(=O)N[C@@H](CCc3ccc(C(F)(F)F)c(OC)c3)C(=O)N2C1 [PP2167]				AA (a compound having 20 or more is denoted as AA)	A (a compound having 10 or more and less than 20 is denoted as A)		
38.1	CCO[C@@H]1C[C@H]2C(=O)NC3(CCCC3)C(=O)N(C)[C@@H](C3CCCC3)C(=O)N(C)[C@H](C)CC(=O)N(C)[C@@H](CC(C)C)C(=O)N[C@@H]([C@@H](C)CC)C(=O)N(C)CC(=O)N(C)[C@H]3C/C=C\CCN(C3=O)[C@@H](Cc3ccc(C(F)(F)F)cc3)C(=O)N(C)CC(=O)N[C@@H](CCc3cc(F)c(C(F)(F)F)c(F)c3)C(=O)N2C1 [PP1096]	B (a compound having 3 or more and less than 10 is denoted as B)		B (a compound having 3 or more and less than 10 is denoted as B)				
29	CCCN1C(=O)[C@@H]2CCN2C(=O)[C@H](C)N(C)C(=O)[C@H]([C@@H](C)CC)NC(=O)[C@H](CC(C)C)N(C)C(=O)C[C@@H](C(=O)N2CCOCC2)N(C)C(=O)[C@H](C2CCCC2)N(C)C(=O)C2(CCCC2)NC(=O)[C@@H]2CCCCN2C(=O)[C@H](CCc2ccc(C(F)(F)F)c(Cl)c2)NC(=O)CN(C)C(=O)[C@@H]1Cc1ccc(C(F)(F)F)cc1 [PP0284] ([NMeL]I[NMeA][Aze][NPrPhe(4-CF3)][Sar][hPhe(3-Cl-4-CF3)][Pip][Ac5c][NMeGly(cPent)][NMeD]-Morpholide; lactam N-11)	C (A compound having a KD ratio of 0.1 or more and less than 3 is denoted as C)		B (a compound having 3 or more and less than 10 is denoted as B)				
27.7	CCO[C@@H]1C[C@H]2C(=O)NC3(CCC3)C(=O)N(C)[C@@H](C3CCCC3)C(=O)N(C)[C@H](C(=O)N3CCOCC3)CC(=O)N(C)[C@@H](CC(C)C)C(=O)N[C@@H]([C@@H](C)CC)C(=O)N(C)CC(=O)N(C)[C@H]3CCCCCN(C3=O)[C@@H](Cc3ccc(F)cc3Cl)C(=O)N(C)CC(=O)N[C@@H](CCc3cc(F)c(C(F)(F)F)c(F)c3)C(=O)N2C1 [PP0918]	B (a compound having 3 or more and less than 10 is denoted as B)		B (a compound having 3 or more and less than 10 is denoted as B)				
8.7	CCCN1C(=O)CN(C)C(=O)CN(C)C(=O)[C@H]([C@@H](C)CC)NC(=O)[C@H](CC(C)C)N(C)C(=O)C[C@@H](C(=O)N2CCOCC2)N(C)C(=O)[C@H](C2CCCC2)N(C)C(=O)C2(CC(F)(F)C2)NC(=O)[C@@H]2CCCN2C(=O)[C@H](CCc2cc(F)c(C(F)(F)F)c(F)c2)NC(=O)CN(C)C(=O)[C@@H]1Cc1ccc(C(F)(F)F)cc1 [PP0766] ([NMeL]I[Sar][Sar][NPrPhe(4-CF3)][Sar][hPhe(3,5-F2-4-CF3)]P[Ac4c(3,3-F2)][NMeGly(cPent)][NMeD]-Morpholide; lactam N-11)	B (a compound having 3 or more and less than 10 is denoted as B)		B (a compound having 3 or more and less than 10 is denoted as B)				
2	CCO[C@@H]1C[C@H]2C(=O)NC3(CCCC3)C(=O)N(C)[C@@H](C3CCCC3)C(=O)N(C)[C@H](C(=O)N3CCOCC3)CC(=O)N(C)[C@@H](CC(C)C)C(=O)N[C@@H]([C@@H](C)CC)C(=O)N(C)[C@@H](C)C(=O)N3CC[C@H]3C(=O)N(CC)[C@@H](Cc3ccc(C)cc3)C(=O)N(C)CC(=O)N[C@@H](CCc3ccc(C(F)(F)F)c(Cl)c3)C(=O)N2C1 [PP0014] ([NMeL]I[NMeA][Aze][NEtPhe(4-Me)][Sar][hPhe(3-Cl-4-CF3)][Hyp](Et)[Ac5c][NMeGly(cPent)][NMeD]-Morpholide; lactam N-11)	C (A compound having a KD ratio of 0.1 or more and less than 3 is denoted as C)		C (A compound having a KD ratio of 0.1 or more and less than 3 is denoted as C)				
